Measured values published in ChEMBL document CHEMBL4393657, “Tetrazole hybrids and their antifungal activities” (2019).
Converted amounts (≈) assume the structure as drawn.

How the values were obtained:
Type in all cases: functional
Aspergillus niger [1] = assay: Potency index, ratio for MIC of fluconazole to MIC of compound for antifungal activity against Aspergillus niger
Saccharomyces cerevisiae = assay: Potency index, ratio for MIC of fluconazole to MIC of compound for antifungal activity against Saccharomyces cerevisiae
Aspergillus fumigatus [2] = assay: Potency index, ratio for MIC of fluconazole to MIC of compound for antifungal activity against Aspergillus fumigatus
Staphylococcus aureus = assay: Antifungal activity against methicillin-resistant Staphylococcus aureus after 24 hrs by broth microdilution assay
Cryptococcus neoformans = assay: Antifungal activity against Cryptococcus neoformans LA314 assessed as reduction in fungal cell growth incubated for 48 hrs by broth microdilution method; conditions: LA314, 48 h
Nakaseomyces glabratus [3] = assay: Antifungal activity against Candida glabrata assessed as reduction in fungal cell growth incubated for 48 hrs by broth microdilution method
Candida parapsilosis = assay: Antifungal activity against Candida parapsilosis ATCC 22019 assessed as reduction in fungal cell growth incubated for 48 hrs by broth microdilution method; conditions: Lodderomyces parapsilosis, ATCC 22019, 48 h
Pichia kudriavzevii [4] = assay: Antifungal activity against Candida krusei assessed as reduction in fungal cell growth incubated for 48 hrs by broth microdilution method
Candida tropicalis [5] = assay: Antifungal activity against Candida tropicalis assessed as reduction in fungal cell growth incubated for 48 hrs by broth microdilution method
Aspergillus niger [6] = assay: Antifungal activity against Aspergillus niger assessed as reduction in fungal cell growth incubated for 72 hrs by broth microdilution method
Candida albicans [7] = assay: Antifungal activity against Candida albicans V-01-191A-261 assessed as reduction in fungal cell growth incubated for 48 hrs by broth microdilution method; conditions: V-01-191A-261, 48 h
Candida albicans [8] = assay: Antifungal activity against Candida albicans TA
Candida albicans [9] = assay: In vivo antifungal activity against Candida albicans TA infected in CDF-1 mouse dosed orally assessed as survival of mouse; conditions: po
Aspergillus flavus [10] = assay: Antifungal activity against Aspergillus flavus assessed as inhibition zone at 20 ug/ml by disk diffusion method; conditions: read-out: IZ
Aspergillus fumigatus [11] = assay: Antifungal activity against Aspergillus fumigatus assessed as inhibition zone at 20 ug/ml by disk diffusion method; conditions: read-out: IZ
Aspergillus niger [12] = assay: Antifungal activity against Aspergillus niger assessed as inhibition zone at 20 ug/ml by disk diffusion method; conditions: read-out: IZ
Candida albicans [13] = assay: Antifungal activity against Candida albicans assessed as inhibition zone at 20 ug/ml by disk diffusion method; conditions: read-out: IZ
Candida albicans [14] = assay: Antifungal activity against Candida albicans assessed as reduction in fungal cell growth incubated for 24 hrs by broth microdilution method
Nakaseomyces glabratus [15] = assay: Antifungal activity against Candida glabrata assessed as reduction in fungal cell growth incubated for 24 hrs by broth microdilution method
Pichia kudriavzevii [16] = assay: Antifungal activity against Candida krusei assessed as reduction in fungal cell growth incubated for 24 hrs by broth microdilution method
Candida tropicalis [17] = assay: Antifungal activity against Candida tropicalis assessed as reduction in fungal cell growth incubated for 24 hrs by broth microdilution method
Candida albicans [18] = assay: Antifungal activity against Candida albicans assessed as inhibition zone at 100 ug/ml; conditions: read-out: IZ
Aspergillus niger [19] = assay: Antifungal activity against Aspergillus niger assessed as inhibition zone at 100 ug/ml; conditions: read-out: IZ
Candida albicans [20] = assay: Antifungal activity against Candida albicans assessed as reduction in fungal cell growth incubated for 48 hrs by broth microdilution susceptibility method
Aspergillus niger [21] = assay: Antifungal activity against Aspergillus niger assessed as reduction in fungal cell growth incubated for 48 hrs by broth microdilution susceptibility method
Candida albicans [22] = assay: Antifungal activity against Candida albicans assessed as reduction in fungal cell growth incubated for 24 and 72 hrs by cup plate method
Aspergillus flavus [23] = assay: Antifungal activity against Aspergillus flavus assessed as reduction in fungal cell growth incubated for 24 and 72 hrs by cup plate method
Candida albicans [24] = assay: Antifungal activity against Candida albicans assessed as inhibition zone at 125 ug/ml by disk diffusion method; conditions: read-out: IZ
Aspergillus fumigatus [25] = assay: Antifungal activity against Aspergillus fumigatus assessed as reduction in fungal cell growth incubated for 48 hrs by broth microdilution method
Aspergillus niger [26] = assay: Antifungal activity against Aspergillus niger assessed as reduction in fungal cell growth incubated for 48 hrs by broth microdilution method
Candida albicans [27] = assay: Antifungal activity against Candida albicans MTCC 227 assessed as reduction in fungal cell growth incubated for 24 and 48 hrs by broth microdilution method
Aspergillus fumigatus [28] = assay: Antifungal activity against Aspergillus fumigatus assessed as reduction in fungal cell growth incubated for 24 and 48 hrs by broth microdilution method
Candida albicans [29] = assay: Potency index, ratio for MIC of griseofulvin to MIC of compound for antifungal activity against Candida albicans MTCC 227 assessed as reduction in fungal cell growth incubated for 24 and 48 hrs by broth microdilution method

Nc1nc(-c2ccc(-n3cnnn3)cc2)cc(-c2ccc(OC(F)F)c(O)c2)n1
Ratio (Aspergillus niger [1]): >=2
Ratio (Saccharomyces cerevisiae): >=2
Ratio (Aspergillus fumigatus [2]): >=2

COc1cccc(OC)c1C(=O)N[C@@H]1C(=O)N2[C@@H]1SC(C)(C)[C@@H]2C(=O)O [METHICILLIN]
MIC (Staphylococcus aureus): > 250 µg/mL

CC[C@@H]([C@H](C)O)n1ncn(-c2ccc(N3CCN(c4ccc(OC[C@@H]5CO[C@@](Cn6cncn6)(c6ccc(F)cc6F)C5)cc4)CC3)cc2)c1=O [POSACONAZOLE]
MIC (Cryptococcus neoformans): 0.12 to 1 µg/mL (≈ 0.171 to 1.43 µM)
MIC (Nakaseomyces glabratus [3]): 0.12 to 1 µg/mL (≈ 0.171 to 1.43 µM)
MIC (Candida parapsilosis): 0.12 to 1 µg/mL (≈ 0.171 to 1.43 µM)
MIC (Pichia kudriavzevii [4]): 0.12 to 1 µg/mL (≈ 0.171 to 1.43 µM)
MIC (Candida tropicalis [5]): 0.12 to 1 µg/mL (≈ 0.171 to 1.43 µM)
MIC (Aspergillus niger [6]): 0.12 to 1 µg/mL (≈ 0.171 to 1.43 µM)
MIC (Candida albicans [7]): 0.12 to 1 µg/mL (≈ 0.171 to 1.43 µM)

OC(Cn1cncn1)(Cn1cncn1)c1ccc(F)cc1F [FLUCONAZOLE]
MIC (Cryptococcus neoformans): 2 to 8 µg/mL (≈ 6.53 to 26.1 µM)
MIC (Nakaseomyces glabratus [3]): 2 to 8 µg/mL (≈ 6.53 to 26.1 µM)
MIC (Candida parapsilosis): 2 to 8 µg/mL (≈ 6.53 to 26.1 µM)
MIC (Pichia kudriavzevii [4]): 2 to 8 µg/mL (≈ 6.53 to 26.1 µM)
MIC (Candida tropicalis [5]): 2 to 8 µg/mL (≈ 6.53 to 26.1 µM)
MIC (Aspergillus niger [6]): 2 to 8 µg/mL (≈ 6.53 to 26.1 µM)
MIC (Candida albicans [7]): 2 to 8 µg/mL (≈ 6.53 to 26.1 µM)
MIC (Candida albicans [8]): 100 µg/mL (≈ 327 µM)
ED50 (Candida albicans [9]): 0.29 to 0.35 mg/kg
zone of inhibition at 20 µg/mL (Aspergillus flavus [10]): 19 to 22 mm
zone of inhibition at 20 µg/mL (Aspergillus fumigatus [11]): 19 to 22 mm
zone of inhibition at 20 µg/mL (Aspergillus niger [12]): 19 to 22 mm
zone of inhibition at 20 µg/mL (Candida albicans [13]): 19 to 22 mm
MIC (Candida albicans [14]): 1 to 4 µg/mL (≈ 3.27 to 13.1 µM)
MIC (Nakaseomyces glabratus [15]): 1 to 4 µg/mL (≈ 3.27 to 13.1 µM)
MIC (Pichia kudriavzevii [16]): 1 to 4 µg/mL (≈ 3.27 to 13.1 µM)
MIC (Candida tropicalis [17]): 1 to 4 µg/mL (≈ 3.27 to 13.1 µM)
zone of inhibition at 100 µg/mL (Candida albicans [18]): 22 to 25 mm
zone of inhibition at 100 µg/mL (Aspergillus niger [19]): 22 to 25 mm
MIC (Candida albicans [20]): 6.25 µg/mL (≈ 20.4 µM)
MIC (Aspergillus niger [21]): 6.25 µg/mL (≈ 20.4 µM)
MIC (Candida albicans [22]): 25 µg/mL (≈ 81.6 µM)
MIC (Aspergillus flavus [23]): 25 µg/mL (≈ 81.6 µM)
zone of inhibition at 125 µg/mL (Candida albicans [24]): 14 mm
MIC (Aspergillus fumigatus [25]): 2.5 µg/mL (≈ 8.16 µM)
MIC (Aspergillus niger [26]): 0.625 to 6.25 µg/mL (≈ 2.04 to 20.4 µM)

Cc1ccc2[nH]c(-c3cc4cc(Cl)ccc4n4nnnc34)nc2c1
MIC (Candida albicans [27]): 125 µg/mL (≈ 373 µM)
MIC (Aspergillus fumigatus [28]): 125 to 1000 µg/mL (≈ 373 to 2990 µM)
Ratio (Candida albicans [29]): 4
